Results: PubChem BioAssay (NCI)
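Growth conditions: 96-well plates. Treatment: test compound, 48 hours, 5 concentrations. Analysis: linear interpolation between bracketing concentrations; unreached endpoints set to highest concentration. TGI is the concentration that stops growth completely.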

Columns and labels:
Assay in all cases: NCI-60 cell line screen, 48 h
SK-OV-3 ovarian = test system: SK-OV-3 ovarian
SK-MEL-5 melanoma = test system: SK-MEL-5 melanoma
HT29 colon = test system: HT29 colon
MDA-MB-231 breast = test system: MDA-MB-231 breast
LOX IMVI melanoma = test system: LOX IMVI melanoma
HL-60(TB) leukemia = test system: HL-60(TB) leukemia
OVCAR-4 ovarian = test system: OVCAR-4 ovarian
NCI-H460 lung = test system: NCI-H460 lung
HOP-62 NSCLC = test system: HOP-62 NSCLC
SR leukemia = test system: SR leukemia
KM12 colon = test system: KM12 colon
M14 melanoma = test system: M14 melanoma
TK-10 renal = test system: TK-10 renal
HCT-116 colon = test system: HCT-116 colon
HS 578T breast = test system: HS 578T breast
HCC-2998 colon = test system: HCC-2998 colon
IGROV1 ovarian = test system: IGROV1 ovarian
COLO 205 colon = test system: COLO 205 colon
SF-295 CNS = test system: SF-295 CNS
OVCAR-3 ovarian = test system: OVCAR-3 ovarian
BT-549 breast = test system: BT-549 breast
A498 renal = test system: A498 renal
MDA-N = test system: MDA-N
MCF7 breast = test system: MCF7 breast
DU-145 prostate = test system: DU-145 prostate
SN12C renal = test system: SN12C renal
CAKI-1 renal = test system: CAKI-1 renal
SK-MEL-28 melanoma = test system: SK-MEL-28 melanoma
U251 CNS = test system: U251 CNS
SNB-19 CNS = test system: SNB-19 CNS
OVCAR-8 ovarian = test system: OVCAR-8 ovarian
MOLT-4 leukemia = test system: MOLT-4 leukemia
MALME-3M melanoma = test system: MALME-3M melanoma
T-47D breast = test system: T-47D breast
786-0 renal = test system: 786-0 renal
HCT-15 colon = test system: HCT-15 colon
SW-620 colon = test system: SW-620 colon
K-562 leukemia = test system: K-562 leukemia
NCI-H522 lung = test system: NCI-H522 lung
RXF 393 renal = test system: RXF 393 renal
EKVX NSCLC = test system: EKVX NSCLC
NCI-H226 lung = test system: NCI-H226 lung
OVCAR-5 ovarian = test system: OVCAR-5 ovarian
UACC-257 melanoma = test system: UACC-257 melanoma
MDA-MB-435 = test system: MDA-MB-435
UO-31 renal = test system: UO-31 renal
UACC-62 melanoma = test system: UACC-62 melanoma
SK-MEL-2 melanoma = test system: SK-MEL-2 melanoma
NCI/ADR-RES ovarian = test system: NCI/ADR-RES ovarian
SF-539 CNS = test system: SF-539 CNS
SF-268 CNS = test system: SF-268 CNS
PC-3 prostate = test system: PC-3 prostate
HOP-92 NSCLC = test system: HOP-92 NSCLC
A549 NSCLC = test system: A549 NSCLC
ACHN renal = test system: ACHN renal

CN1CC(S(=O)(=O)c2ccccc2)CC(S(=O)(=O)c2ccccc2)C1c1ccccc1 (stereo not given)
TGI (SK-OV-3 ovarian): > 100 µM | TGI (SK-MEL-5 melanoma): 28.6 µM | TGI (HT29 colon): 29.6 µM | TGI (MDA-MB-231 breast): 31.8 µM | TGI (LOX IMVI melanoma): 29.7 µM | TGI (HL-60(TB) leukemia): 32.2 µM | TGI (OVCAR-4 ovarian): 34.5 µM | TGI (NCI-H460 lung): 49.4 µM | TGI (HOP-62 NSCLC): 54.6 µM | TGI (SR leukemia): 78.3 µM | TGI (KM12 colon): 38.7 µM | TGI (M14 melanoma): 42.1 µM | TGI (TK-10 renal): 28 µM | TGI (HCT-116 colon): 22.9 µM | TGI (HS 578T breast): 84.1 µM | TGI (HCC-2998 colon): 30.3 µM | TGI (IGROV1 ovarian): > 100 µM | TGI (COLO 205 colon): 28 µM | TGI (SF-295 CNS): > 100 µM | TGI (OVCAR-3 ovarian): 27.8 µM | TGI (BT-549 breast): 28.5 µM | TGI (A498 renal): 31.7 µM | TGI (MDA-N): 28.8 µM | TGI (MCF7 breast): 30 µM | TGI (DU-145 prostate): 60.8 µM | TGI (SN12C renal): 25.7 µM | TGI (CAKI-1 renal): 26 µM | TGI (SK-MEL-28 melanoma): 36.7 µM | TGI (U251 CNS): 25.8 µM | TGI (SNB-19 CNS): 59.6 µM | TGI (OVCAR-8 ovarian): > 100 µM | TGI (MOLT-4 leukemia): > 100 µM | TGI (MALME-3M melanoma): 27.6 µM | TGI (T-47D breast): 50.6 µM | TGI (786-0 renal): 25.5 µM | TGI (HCT-15 colon): 32.2 µM | TGI (SW-620 colon): 34.4 µM | TGI (K-562 leukemia): 95.2 µM | TGI (NCI-H522 lung): 13.1 µM | TGI (RXF 393 renal): 37.3 µM | TGI (EKVX NSCLC): 32.6 µM | TGI (NCI-H226 lung): 65.5 µM | TGI (OVCAR-5 ovarian): 32.7 µM | TGI (UACC-257 melanoma): 41 µM | TGI (MDA-MB-435): 28.3 µM | TGI (UO-31 renal): 29.4 µM | TGI (UACC-62 melanoma): 29 µM | TGI (SK-MEL-2 melanoma): 20 µM | TGI (NCI/ADR-RES ovarian): > 100 µM | TGI (SF-539 CNS): 36.9 µM | TGI (SF-268 CNS): 37.7 µM | TGI (PC-3 prostate): 27.1 µM | TGI (HOP-92 NSCLC): 37.7 µM | TGI (A549 NSCLC): > 100 µM | TGI (ACHN renal): 26.9 µM
